Measurements: article PMC7691360, “Synthesis of novel cytotoxic tetracyclic acridone derivatives and study of their molecular docking, ADMET, QSAR, bioactivity and protein binding properties” (Scientific Reports, 2020)

Columns and labels:
[1] = tested on: HT29 cells; experiment: MTT cytotoxicity assay against HT29; assay type: cell-based; conditions: Homo sapiens, 48 h, read-out: Percentage of inhibition against treated concentrations; for activity at 1 µM: HT-29, HT29, 1 µM; for activity at 5 µM: HT-29, HT29, 5 µM; for activity at 10 µM: HT-29, HT29, 10 µM; for activity at 25 µM: HT-29, HT29, 25 µM; for activity at 50 µM: HT-29, HT29, 50 µM
Description: (§1) Anticancer activity of 7a–s has been evaluated by MTT [3-(4,5-dimethylthiazol-2-yl)-2,5-diphenyl-tetrazolium bromide] assay and the cell lines HT29 (ATCC: HTB-38), MDA-MB-231 (ATCC: HTB-26), HEK293T (ATCC: CRL-3216) were procured from American type cell culture collection (ATCC), Manassas, USA and other chemicals were procured from Sigma-Aldrich. Then absorbance (used as a measure of cell proliferation) was measured at 570 nm with a kinetic micro-plate reader (BioTek, Winooski, Vermont).
(§2) Having synthesized a series of the title compounds, all of them were screened for their in vitro anticancer profiles against a panel of human colorectal adenocarcinoma (HT29), human breast adenocarcinoma (MDA-MB-231) and mutated Human embryonic kidney 293 (HEK293T) cancer cell lines by using MTT colourmetric assay as per Johan van Meerloo protocol. The three cell lines were cultured in […] medium and supplemented with 10% FBS followed by 100 units/mL penicillin/ streptomycin and were cultured at 37 °C in 5% CO2. Cell proliferation of the growing cells was measured in terms of logarithmic standards. Analytically, all the cultured cells were plated onto 96 well plates at a starting density of 10^5 cells. Then all the cells were treated with title compounds 7a–s for a period of 48 h with different concentrations. After this incubation cell proliferation inhibition was determined by MTT assay and all the experiments were conducted in triplicates and readings were presented as mean ± SD and provided in Tables 1, 2 and 3.

[2] = tested on: MDA-MB-231 cells; experiment: MTT cytotoxicity assay against MDA-MB-231; assay type: cell-based; conditions: Homo sapiens, 48 h, read-out: Percentage of inhibition against treated concentrations; for activity at 1 µM: MDAMB231, 1 µM; for activity at 5 µM: MDAMB231, 5 µM; for activity at 10 µM: MDAMB231, 10 µM; for activity at 25 µM: MDAMB231, 25 µM; for activity at 50 µM: MDAMB231, 50 µM
Description: as §1, §2

[3] = tested on: HEK293T cells; experiment: MTT cytotoxicity assay against HEK293T; assay type: cell-based; conditions: Homo sapiens, HEK-293T, 48 h, read-out: Percentage of inhibition against treated concentrations
Description: as §1, §2

Row | melting point | SMILES | activity at 1 µM [1] | activity at 5 µM [1] | activity at 10 µM [1] | activity at 25 µM [1] | activity at 50 µM [1] | activity at 1 µM [2] | activity at 5 µM [2] | activity at 10 µM [2] | activity at 25 µM [2] | activity at 50 µM [2] | activity at 1 µM [3] | activity at 5 µM [3] | activity at 10 µM [3] | activity at 25 µM [3] | activity at 50 µM [3]
1 | 225 to 227 °C | O=C(c1ccccc1F)N1CCn2c3ccccc3c(=O)c3cccc1c32 [Compound 7p, 3-(2-Fluorobenzoyl)-2,3-dihydro-1H,7H-pyrazino[3,2,1-de]acridin-7-one] | 90.43 ± 0.77% | 74.71 ± 0.22% | 65.8 ± 0.76% | 54.13 ± 0.37% | 21 ± 0.22% | 89.82 ± 0.36% | 68.3 ± 0.79% | 61.77 ± 0.42% | 51.43 ± 0.36% | 30.3 ± 0.84% | 96.23 ± 0.74% | 93.99 ± 0.91% | 89.17 ± 0.81% | 82.34 ± 0.34% | 48.53 ± 0.12%
2 | 236 to 238 °C | O=C(c1ccc(F)cc1)N1CCn2c3ccccc3c(=O)c3cccc1c32 [Compound 7r, 3-(4-Fluorobenzoyl)-2,3-dihydro-1H,7H-pyrazino[3,2,1-de]acridin-7-one] | 91.9 ± 0.93% | 75.12 ± 0.73% | 66.15 ± 0.13% | 55.26 ± 0.23% | 21.6 ± 0.24% | 96.33 ± 0.48% | 86.31 ± 0.21% | 78.85 ± 0.32% | 69 ± 0.05% | 40.7 ± 0.86% | 97.98 ± 0.88% | 95.25 ± 0.68% | 92.81 ± 0.21% | 88.11 ± 0.25% | 51.93 ± 0.23%
